This passage reports IC50 results from patent US20090099167A1, “Organic compounds” (Novartis Institutes for Biomedical Research, priority 2004, published 2009).

One test addresses T1, c-Abl kinase (Homo sapiens, UniProt P00519).
T1 construct: The His-tagged kinase domain of c-Abl is cloned and expressed in the baculovirus/Sf9 system; His; made in house; host or cells: Sf9 (baculovirus)
T1 sequence (P00519 242-493 limits assumed): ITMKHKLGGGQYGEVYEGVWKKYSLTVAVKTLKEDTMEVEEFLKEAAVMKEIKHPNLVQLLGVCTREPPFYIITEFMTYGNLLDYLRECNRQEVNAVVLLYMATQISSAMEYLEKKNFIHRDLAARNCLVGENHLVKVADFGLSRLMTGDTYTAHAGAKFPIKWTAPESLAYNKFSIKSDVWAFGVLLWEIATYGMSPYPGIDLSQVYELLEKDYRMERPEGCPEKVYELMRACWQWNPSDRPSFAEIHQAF
Nature of the test: c-Abl protein-tyrosine kinase filter binding assay. It is filed as biochemical. The note with it: Table 5; read-out: C-abl, IC50 class. In short, it runs like this: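 His-tagged c-Abl kinase domain (37 kD, Sf9-expressed) with 30 μg/mL poly-AEKY and [γ-33P]-ATP (5 μM ATP) in 20 mM Tris.HCl pH 7.5, 10 mM MgCl2, 10 μM Na3VO4, 1 mM DTT, 1% DMSO. EDTA-stopped reactions captured on PVDF membranes, washed with 0.5% H3PO4, and scintillation-counted.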

Test [1] concerns the target T2, human VEGF-R2 receptor (KDR) (Homo sapiens, UniProt P35968).
T2 construct: expressed in transfected cells; host or cells: CHO cells
The test can be described thus: VEGF-induced KDR autophosphorylation in transfected CHO cells, sandwich ELISA. In kind it is cell-based. The note with it: Table 5; read-out: KDR, IC50 class. The method, then:
The compounds to be tested are then diluted in culture medium (without FCS, with 0.1% bovine serum albumin) and added to the cells. (Controls comprise medium without test compounds). After two hours' incubation at 37° C., recombinant VEGF is added; the final VEGF concentration is 20 ng/ml). After a further five minutes incubation at 37° C., the cells are washed twice with ice-cold PBS (phosphate-buffered saline) and immediately lysed in 100 μl lysis buffer per well. The lysates are then centrifuged to remove the cell nuclei, and the protein concentrations of the supernatants are determined using a commercial protein assay (BIORAD). The lysates can then either be immediately used or, if necessary, stored at −20° C. A sandwich ELISA is carried out to measure the VEGF-R2 phosphorylation: a monoclonal antibody to VEGF-R2 (for example Mab 1495.12.14; ProQinase, Freiburg, Germany) is immobilized on black ELISA plates (OptiPlate™ HTRF-96 from Packard). The plates are then washed and the remaining free protein-binding sites are saturated with 3% TopBlock® (Juro, Cat. # TB232010) in phosphate buffered saline with Tween 20® (polyoxyethylen(20)-sorbitane monolaurate, ICI/Uniquema) (PBST). The cell lysates (20 μg protein per well) are then incubated in these plates overnight at 4° C. together with an antiphosphotyrosine antibody coupled with alkaline phosphatase (PY20:AP from Zymed). […] The luminescence is measured in a Packard Top Count Microplate Scintillation Counter. The difference between the signal of the positive control (stimulated with VEGF) and that of the negative control (not stimulated with VEGF) corresponds to VEGF-induced VEGF-R2 phosphorylation (=100%). The activity of the tested substances is calculated as percent inhibition of VEGF-induced VEGF-R2 phosphorylation, wherein the concentration of substance that induces half the maximum inhibition is defined as the IC50 (inhibitory dose for 50% inhibition). […] Flt3 kinase inhibition is determined as follows: The baculovirus donor vector pFbacG01 (GIBCO) is used to generate a recombinant baculovirus expressing the amino acid region amino acids 563-993 of the cytoplasmic kinase domain of human Flt-3. The coding sequence for the cytoplasmic domain of Flt-3 is amplified by PCR from human c-DNA libraries (Clontech). The amplified DNA fragments and the pFbacG01 vector are made compatible for ligation by digestion with BamH1 and HindIII. Ligation of these DNA fragments results in the baculovirus donor plasmid Flt-3(1.1). The production of the viruses, the expression of proteins in Sf9 cells and the purification of the GST-fused proteins are performed as follows: Production of virus: Transfer vector (pFbacG01-Flt-3) containing the Flt-3 kinase domain is transfected into the DH10Bac cell line (GIBCO) and the transfected cells are plated on selective agar plates. Colonies without insertion of the fusion sequence into the viral genome (carried by the bacteria) are blue. Single white colonies are picked and viral DNA (bacmid) is isolated from the bacteria by standard plasmid purification procedures. Sf9 or Sf21 cells (American Type Culture Collection) are then transfected in flasks with the viral DNA using Cellfectin reagent. Determination of small scale protein expression in Sf9 cells: Virus containing media is collected from the transfected cell culture and used for infection to increase its titre. Virus containing media obtained after two rounds of infection is used for large-scale protein expression. For large-scale protein expression 100 cm^2 round tissue culture plates are seeded with 5×10^7 cells/plate and infected with 1 mL of virus-containing media (approx. 5 MOIs). After 3 days the cells are scraped off the plate and centrifuged at 500 rpm for 5 min. Cell pellets from 10-20, 100 cm^2 plates, are resuspended in 50 mL of ice-cold lysis buffer (25 mMTris-HCl, pH 7.5, 2 mM EDTA, 1% NP-40, 1 mM DTT, 1 mM PMSF). The cells are stirred on ice for 15 min and then centrifuged at 5000 rpms for 20 min. […]
(In general: An ELISA detects its analyte on a solid surface through an enzyme-linked reagent.)

T2 sequence (P35968 20-1356): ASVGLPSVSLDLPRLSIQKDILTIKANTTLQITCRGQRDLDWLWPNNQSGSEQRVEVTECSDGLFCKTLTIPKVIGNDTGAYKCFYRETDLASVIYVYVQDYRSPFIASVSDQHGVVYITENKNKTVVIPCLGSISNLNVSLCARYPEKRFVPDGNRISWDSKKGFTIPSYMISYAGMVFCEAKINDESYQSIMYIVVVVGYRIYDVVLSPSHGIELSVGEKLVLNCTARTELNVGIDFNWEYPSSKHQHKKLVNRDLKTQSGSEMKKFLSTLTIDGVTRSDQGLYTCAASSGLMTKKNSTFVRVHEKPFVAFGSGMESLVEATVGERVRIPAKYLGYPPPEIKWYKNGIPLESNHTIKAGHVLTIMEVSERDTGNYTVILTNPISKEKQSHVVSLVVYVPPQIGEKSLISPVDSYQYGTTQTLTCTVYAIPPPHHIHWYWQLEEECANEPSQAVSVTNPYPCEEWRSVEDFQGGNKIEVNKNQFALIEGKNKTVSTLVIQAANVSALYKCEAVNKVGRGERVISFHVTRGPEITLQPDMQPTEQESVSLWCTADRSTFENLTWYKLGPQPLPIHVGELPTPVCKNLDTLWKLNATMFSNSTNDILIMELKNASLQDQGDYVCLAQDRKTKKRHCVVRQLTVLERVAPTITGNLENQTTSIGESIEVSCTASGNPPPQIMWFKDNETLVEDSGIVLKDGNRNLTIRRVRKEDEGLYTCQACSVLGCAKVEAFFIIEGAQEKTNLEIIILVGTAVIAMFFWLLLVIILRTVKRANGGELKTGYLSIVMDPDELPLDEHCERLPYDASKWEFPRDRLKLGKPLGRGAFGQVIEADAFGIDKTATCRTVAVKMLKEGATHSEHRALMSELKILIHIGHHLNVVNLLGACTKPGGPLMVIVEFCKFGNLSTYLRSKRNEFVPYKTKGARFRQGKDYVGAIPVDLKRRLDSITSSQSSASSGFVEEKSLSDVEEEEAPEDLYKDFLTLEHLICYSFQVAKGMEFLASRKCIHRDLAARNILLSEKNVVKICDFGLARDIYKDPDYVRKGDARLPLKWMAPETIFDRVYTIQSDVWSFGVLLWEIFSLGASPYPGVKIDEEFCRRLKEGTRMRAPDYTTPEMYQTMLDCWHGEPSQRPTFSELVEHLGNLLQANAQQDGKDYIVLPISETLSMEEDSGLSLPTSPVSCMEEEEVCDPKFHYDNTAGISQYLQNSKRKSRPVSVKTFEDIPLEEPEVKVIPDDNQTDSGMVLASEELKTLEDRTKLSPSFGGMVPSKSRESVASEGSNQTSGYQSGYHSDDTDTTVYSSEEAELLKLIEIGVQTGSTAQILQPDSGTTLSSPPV

For orientation: IC50 means the midpoint of a concentration-inhibition curve. As for `Cc1nc2c(-c3cccc(N4CCOCC4)c3)cnn2c(N)c1-c1cccc(Cl)c1` [Example 87, 6-(3-Chloro-phenyl)-5-methyl-3-(3-morpholin-4-yl-phenyl)-pyrazolo[1,5-a]pyrimidin-7-ylamine], the figures for the half-inhibitory concentration (IC50) (at c-Abl kinase; in test [1]) were below 1 µM and 1 to 10 µM, respectively.
On to `COc1ccc(-c2cnn3c(N)c(-c4cccc(Cl)c4)c(C)nc23)cc1` [Example 88, 6-(3-Chloro-phenyl)-3-(4-methoxy-phenyl)-5-methyl-pyrazolo[1,5-a]pyrimidin-7-ylamine], for which the IC50 on c-Abl kinase was below 1 µM; in test [1] it was 1 to 10 µM.
Regarding `Cc1nc2c(-c3cccc(N4C[C@@H](C)O[C@@H](C)C4)c3)cnn2c(N)c1-c1cccc(Cl)c1` [Example 89, 6-(3-Chloro-phenyl)-3-[3-((2R,6S)-2,6-dimethyl-morpholin-4-yl)-phenyl]-5-methyl-pyrazolo[1,5-a]pyrimidin-7-ylamine], the IC50 on c-Abl kinase was below 1 µM; in test [1], 1 to 10 µM.
For `Cc1nc2c(-c3cccc(N4CCN(CCO)CC4)c3)cnn2c(N)c1-c1cccc(Cl)c1` [Example 90, 2-(4-{3-[7-Amino-6-(3-chloro-phenyl)-5-methyl-pyrazolo[1,5-a]pyrimidin-3-yl]-phenyl}-piperazin-1-yl)-ethanol], the IC50 at c-Abl kinase is below 1 µM; in test [1] it was 1 to 10 µM.
Regarding `CN1CCN(c2cccc(-c3cnn4c(N)c(Cc5ccccc5)cnc34)c2)CC1` [Example 91, 6-Benzyl-3-[3-(4-methyl-piperazin-1-yl)-phenyl]-pyrazolo[1,5-a]pyrimidin-7-ylamine], the results for the IC50 (on c-Abl kinase; in test [1]) were below 1 µM and 1 to 10 µM, respectively.
For the compound `COc1ccc(-c2cnn3c(N)c(-c4cccc(Cl)c4)c(C)nc23)cc1OC` [Example 93, 6-(3-Chloro-phenyl)-3-(3,4-dimethoxy-phenyl)-5-methyl-pyrazolo[1,5-a]pyrimidin-7-ylamine], the IC50 is below 1 µM on c-Abl kinase and above 10 µM in test [1].
For `COc1ccc(-c2cnn3c(N)c(-c4ccc(F)c(Cl)c4)c(C)nc23)cc1OC` [Example 94, 6-(3-Chloro-4-fluoro-phenyl)-3-(3,4-dimethoxy-phenyl)-5-methyl-pyrazolo[1,5-a]pyrimidin-7-ylamine], in that order: above 10 µM and above 10 µM.
Take `COc1ccc(-c2cnn3c(N)c(-c4ccc(F)c(Cl)c4)c(C)nc23)cc1` [Example 95, 6-(3-Chloro-4-fluoro-phenyl)-3-(4-methoxy-phenyl)-5-methyl-pyrazolo[1,5-a]pyrimidin-7-ylamine]: the IC50 is below 1 µM at c-Abl kinase and above 10 µM in test [1].
For `COc1ccc(-c2cnn3c(N)c(-c4ccc(F)cc4)c(C)nc23)cc1` [Example 96, 6-(4-Fluoro-phenyl)-3-(4-methoxy-phenyl)-5-methyl-pyrazolo[1,5-a]pyrimidin-7-ylamine], the IC50 is below 1 µM at c-Abl kinase and above 10 µM in test [1].
For `Cc1nc2c(-c3cccc(N4CCN(CCO)CC4)c3)cnn2c(N)c1-c1ccc(F)cc1` [Example 97, 2-(4-{3-[7-Amino-6-(4-fluoro-phenyl)-5-methyl-pyrazolo[1,5-a]pyrimidin-3-yl]-phenyl}-piperazin-1-yl)-ethanol] the same measures were below 1 µM and 1 to 10 µM.
`Cc1nc2c(-c3cccc(N4CCN(C)CC4)c3)cnn2c(N)c1-c1ccc(F)c(F)c1` [Example 98, 6-(3,4-Difluoro-phenyl)-5-methyl-3-[3-(4-methyl-piperazin-1-yl)-phenyl]-pyrazolo[1,5-a]pyrimidin-7-ylamine]: the IC50 was below 1 µM at c-Abl kinase and above 10 µM in test [1].
As to `COc1ccc(-c2cnn3c(N)c(-c4ccc(F)c(F)c4)c(C)nc23)cc1OC` [Example 99, 6-(3,4-Difluoro-phenyl)-3-(3,4-dimethoxy-phenyl)-5-methyl-pyrazolo[1,5-a]pyrimidin-7-ylamine], the results for the IC50 (on c-Abl kinase; in test [1]) were below 1 µM and above 10 µM, respectively.
Turning to `Cc1nc2c(-c3cccc(N4CCN(CCO)CC4)c3)cnn2c(N)c1-c1ccc(F)c(Cl)c1` [Example 100, 2-(4-{3-[7-Amino-6-(3-chloro-4-fluoro-phenyl)-5-methyl-pyrazolo[1,5-a]pyrimidin-3-yl]-phenyl}-piperazin-1-yl)-ethanol], the IC50 at c-Abl kinase is below 1 µM; in test [1] it was 1 to 10 µM.
In the case of `Cc1nc2c(-c3cccc(N4CCN(CCO)CC4)c3)cnn2c(N)c1-c1ccc(F)c(F)c1` [Example 101, 2-(4-{3-[7-Amino-6-(3,4-difluoro-phenyl)-5-methyl-pyrazolo[1,5-a]pyrimidin-3-yl]-phenyl}-piperazin-1-yl)-ethanol], the IC50 is below 1 µM at c-Abl kinase and 1 to 10 µM in test [1].
In the case of `Cc1nc2c(-c3cccc(N4CCC(N5CCCC5)CC4)c3)cnn2c(N)c1-c1cccc(Cl)c1` [Example 102, 6-(3-Chloro-phenyl)-5-methyl-3-[3-(4-pyrrolidin-1-yl-piperidin-1-yl)-phenyl]-pyrazolo[1,5-a]pyrimidin-7-ylamine], the half-inhibitory concentration (IC50) was below 1 µM on c-Abl kinase and above 10 µM in test [1].
For `Cc1nc2c(-c3cccc(N4CCC(N5CCCC5)CC4)c3)cnn2c(N)c1-c1ccc(F)cc1` [Example 103, 6-(4-Fluoro-phenyl)-5-methyl-3-[3-(4-pyrrolidin-1-yl-piperidin-1-yl)-phenyl]-pyrazolo[1,5-a]pyrimidin-7-ylamine], the IC50 on c-Abl kinase is below 1 µM; in test [1] it was above 10 µM.
Turning to `Cc1nc2c(-c3cccc(N4CC[N+](C)([O-])CC4)c3)cnn2c(N)c1-c1ccc(F)cc1` [Example 106, 6-(4-Fluoro-phenyl)-5-methyl-3-[3-(4-methyl-4-oxy-piperazin-1-yl)-phenyl]-pyrazolo[1,5-a]pyrimidin-7-ylamine], the IC50 at c-Abl kinase is below 1 µM; in test [1], above 10 µM.
Consider `Cc1nc2c(-c3cccc([N+]4([O-])CC[N+](C)([O-])CC4)c3)cnn2c(N)c1-c1ccc(F)cc1` (stereo not drawn) [Example 107, 6-(4-Fluoro-phenyl)-5-methyl-3-[3-(4-methyl-1,4-dioxy-piperazin-1-yl)-phenyl]-pyrazolo[1,5-a]pyrimidin-7-ylamine], for which the IC50 was below 1 µM at c-Abl kinase and above 10 µM in test [1].
